The text below walks through data of ChEMBL document CHEMBL6182870, “Synthesis and biological activity of 1H-pyrrolo[3,2-g]isoquinolines as Haspin kinase inhibitors” (Bioorg Med Chem, 2025).

As usually defined, the IC50 is the point on the concentration scale where inhibition reaches its midpoint.

Test [1] has as its target T1, Cyclin-dependent kinase 5/CDK5 activator 1 (Homo sapiens) (UniProt Q00535+Q15078). In words: Inhibition of recombinant human CDK5/p25 extracted from bacteria using histone H1 as substrate assessed as enzyme residual activity at 10 uM incubated for 30 mins in presence of ATP by ADP-Glo kinase assay relative to control. Type of test: protein-complex assay.
In test [2] the target is Casein kinase I isoform epsilon (Homo sapiens) (UniProt P49674). The test is described as follows: Inhibition of recombinant human CK1epsilon extracted from baculovirus infected Sf9 cells using RRKHAAIGSpAYSITA peptide as substrate assessed as enzyme residual activity at 1 uM incubated for 30 mins in presence of ATP by ADP-Glo kinase assay relative to control. (In general: ADP-Glo turns the ADP formed in a reaction into a luminescent signal.)

The target in test [3] is Glycogen synthase kinase-3 beta (Homo sapiens) (UniProt P49841). The test is described as follows: Inhibition of recombinant human GSK3beta extracted from baculovirus infected Sf9 cells using GS-1 (YRRAAVPPSPSLSRHSSPHQSpEDEEE) peptide as substrate assessed as enzyme residual activity at 10 uM incubated for 30 mins in presence of ATP by ADP-Glo kinase assay relative to control.

A short description of test [4]: Inhibition of recombinant human CDK9/Cyclin T extracted from baculovirus infected Sf9 cells using YSPTSPSYSPTSPSYSPTSPSKKKK as substrate assessed as enzyme residual activity at 10 uM incubated for 30 mins in presence of ATP by ADP-Glo kinase assay relative to control.
A short description of test [5]: Inhibition of recombinant human CDK9/Cyclin T extracted from baculovirus infected Sf9 cells using YSPTSPSYSPTSPSYSPTSPSKKKK as substrate assessed as enzyme residual activity at 1 uM incubated for 30 mins in presence of ATP by ADP-Glo kinase assay relative to control.
In test [6] the target is Dual specificity protein kinase CLK1 (Mus musculus) (UniProt P22518). The test is described as follows: Inhibition of recombinant mouse CLK1 extracted from bacteria using GRSRSRSRSRSR as substrate assessed as enzyme residual activity at 1 uM incubated for 30 mins in presence of ATP by ADP-Glo kinase assay relative to control.
Test [7] has as its target Glycogen synthase kinase-3 beta (Homo sapiens) (UniProt P49841). The test is described as follows: Inhibition of recombinant human GSK3beta extracted from baculovirus infected Sf9 cells using GS-1 (YRRAAVPPSPSLSRHSSPHQSpEDEEE) peptide as substrate assessed as enzyme residual activity at 1 uM incubated for 30 mins in presence of ATP by ADP-Glo kinase assay relative to control.

For test [8], the target named is T1, Cyclin-dependent kinase 5/CDK5 activator 1 (Homo sapiens). In words: Inhibition of recombinant human CDK5/p25 extracted from bacteria using histone H1 as substrate assessed as enzyme residual activity at 1 uM incubated for 30 mins in presence of ATP by ADP-Glo kinase assay relative to control. Type of test: protein-complex assay.
The target in test [9] is Dual specificity protein kinase CLK1 (Mus musculus) (UniProt P22518). The test is described as follows: Inhibition of recombinant mouse CLK1 extracted from bacteria using GRSRSRSRSRSR as substrate assessed as enzyme residual activity at 10 uM incubated for 30 mins in presence of ATP by ADP-Glo kinase assay relative to control.
Test [10] addresses Dual specificity tyrosine-phosphorylation-regulated kinase 1A (Rattus norvegicus) (UniProt Q63470). In words: Inhibition of recombinant rat DYRK1A kinase domain (1 to 499 residues) extracted from bacteria using KKISGRLSPIMTEQ as substrate assessed as enzyme residual activity at 1 uM incubated for 30 mins in presence of ATP by ADP-Glo kinase assay relative to control.
Test [11] has as its target T2, Serine/threonine-protein kinase haspin (Homo sapiens) (UniProt Q8TF76).
T2 sequence (whole entry): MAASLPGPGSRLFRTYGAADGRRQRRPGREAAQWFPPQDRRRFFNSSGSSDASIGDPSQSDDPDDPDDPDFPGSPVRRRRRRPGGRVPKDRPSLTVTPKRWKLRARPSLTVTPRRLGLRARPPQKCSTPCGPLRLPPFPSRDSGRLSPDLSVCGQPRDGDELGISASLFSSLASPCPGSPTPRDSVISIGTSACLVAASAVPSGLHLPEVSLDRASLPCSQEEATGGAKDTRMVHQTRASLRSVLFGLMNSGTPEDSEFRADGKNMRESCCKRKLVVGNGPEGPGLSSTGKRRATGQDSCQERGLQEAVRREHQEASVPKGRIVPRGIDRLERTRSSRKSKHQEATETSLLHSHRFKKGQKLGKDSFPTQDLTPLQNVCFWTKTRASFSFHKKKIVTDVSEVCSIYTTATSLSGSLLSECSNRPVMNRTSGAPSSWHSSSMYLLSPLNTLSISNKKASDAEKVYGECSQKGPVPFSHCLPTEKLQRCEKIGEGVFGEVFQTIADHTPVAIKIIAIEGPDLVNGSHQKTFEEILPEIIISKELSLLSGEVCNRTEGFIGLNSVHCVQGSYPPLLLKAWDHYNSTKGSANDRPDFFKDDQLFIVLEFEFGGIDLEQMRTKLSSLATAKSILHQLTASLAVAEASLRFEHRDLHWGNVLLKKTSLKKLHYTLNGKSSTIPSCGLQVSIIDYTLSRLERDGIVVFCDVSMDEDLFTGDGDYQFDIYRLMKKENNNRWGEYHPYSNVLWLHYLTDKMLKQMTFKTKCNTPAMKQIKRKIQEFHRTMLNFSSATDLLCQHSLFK
The test is described as follows: Inhibition of recombinant human haspin kinase domain (470 to 798 residues) extracted from bacteria using histone H3 (1 to 21) peptide as substrate assessed as residual activity at 1 uM incubated for 30 mins in presence of ATP by ADP-Glo kinase assay relative to control.

For test [12], the target named is T2, Serine/threonine-protein kinase haspin (Homo sapiens). In words: Inhibition of recombinant human haspin kinase domain (470 to 798 residues) extracted from bacteria using histone H3 (1 to 21) peptide as substrate assessed as residual activity at 10 uM incubated for 30 mins in presence of ATP by ADP-Glo kinase assay relative to control.
The target in test [13] is Casein kinase I isoform epsilon (Homo sapiens) (UniProt P49674). In words: Inhibition of recombinant human CK1epsilon extracted from baculovirus infected Sf9 cells using RRKHAAIGSpAYSITA peptide as substrate assessed as enzyme residual activity at 10 uM incubated for 30 mins in presence of ATP by ADP-Glo kinase assay relative to control.
In test [14] the target is T3, Serine/threonine-protein kinase pim-1 (Homo sapiens, UniProt P11309). In words: Inhibition of recombinant human PIM-1 extracted from bacteria using histone H1 as substrate assessed as enzyme residual activity at 10 uM incubated for 30 mins in presence of ATP by ADP-Glo kinase assay relative to control.
Test [15] deals with T3, Serine/threonine-protein kinase pim-1. In words: Inhibition of recombinant human PIM-1 extracted from bacteria using histone H1 as substrate assessed as enzyme residual activity at 1 uM incubated for 30 mins in presence of ATP by ADP-Glo kinase assay relative to control.
For test [16], the target named is Dual specificity tyrosine-phosphorylation-regulated kinase 1A (Rattus norvegicus) (UniProt Q63470). The test is described as follows: Inhibition of recombinant rat DYRK1A kinase domain (1 to 499 residues) extracted from bacteria using KKISGRLSPIMTEQ as substrate assessed as enzyme residual activity at 10 uM incubated for 30 mins in presence of ATP by ADP-Glo kinase assay relative to control.

For test [17], the target named is T4, Serine/threonine-protein kinase haspin (Homo sapiens, UniProt Q8TF76).
T4 sequence (Q8TF76 whole entry): T2 sequence (whole entry)
The test is described as follows: Inhibition of recombinant human haspin kinase domain (470 to 798 residues) extracted from bacteria using histone H3 (1 to 21) peptide as substrate incubated for 30 mins in presence of ATP by ADP-Glo kinase assay.

Chain of Casein kinase I isoform epsilon (Homo sapiens) (P49674 whole entry, looked up, canonical isoform): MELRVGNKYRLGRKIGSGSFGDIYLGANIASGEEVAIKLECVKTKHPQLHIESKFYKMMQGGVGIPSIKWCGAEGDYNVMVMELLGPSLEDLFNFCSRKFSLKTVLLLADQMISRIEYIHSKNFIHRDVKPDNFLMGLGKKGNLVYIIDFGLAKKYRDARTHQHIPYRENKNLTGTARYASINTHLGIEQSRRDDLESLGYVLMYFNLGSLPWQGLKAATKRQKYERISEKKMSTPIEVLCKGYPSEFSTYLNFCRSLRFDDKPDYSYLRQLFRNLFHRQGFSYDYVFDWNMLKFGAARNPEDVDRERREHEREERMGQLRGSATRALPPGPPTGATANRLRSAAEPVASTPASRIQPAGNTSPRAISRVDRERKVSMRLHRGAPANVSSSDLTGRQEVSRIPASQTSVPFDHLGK
T1 sequence (Q00535 whole entry, canonical isoform): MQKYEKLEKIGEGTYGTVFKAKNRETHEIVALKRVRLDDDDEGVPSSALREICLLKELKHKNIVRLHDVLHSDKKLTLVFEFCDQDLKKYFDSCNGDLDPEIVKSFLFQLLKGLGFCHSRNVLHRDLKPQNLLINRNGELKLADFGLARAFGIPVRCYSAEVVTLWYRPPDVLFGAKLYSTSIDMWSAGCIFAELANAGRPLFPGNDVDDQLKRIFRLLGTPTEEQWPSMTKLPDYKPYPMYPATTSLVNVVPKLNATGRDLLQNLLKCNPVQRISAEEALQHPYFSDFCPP
T1 sequence (Q15078 99-307 partner limits assumed): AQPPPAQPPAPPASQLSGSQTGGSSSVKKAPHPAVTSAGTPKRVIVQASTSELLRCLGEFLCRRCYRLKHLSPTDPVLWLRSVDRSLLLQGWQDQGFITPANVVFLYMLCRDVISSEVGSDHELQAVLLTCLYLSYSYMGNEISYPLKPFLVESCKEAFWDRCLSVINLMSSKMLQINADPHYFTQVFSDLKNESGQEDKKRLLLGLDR
Chain of Dual specificity protein kinase CLK1 (Mus musculus) (P22518 whole entry, looked up, the tested form may be a part): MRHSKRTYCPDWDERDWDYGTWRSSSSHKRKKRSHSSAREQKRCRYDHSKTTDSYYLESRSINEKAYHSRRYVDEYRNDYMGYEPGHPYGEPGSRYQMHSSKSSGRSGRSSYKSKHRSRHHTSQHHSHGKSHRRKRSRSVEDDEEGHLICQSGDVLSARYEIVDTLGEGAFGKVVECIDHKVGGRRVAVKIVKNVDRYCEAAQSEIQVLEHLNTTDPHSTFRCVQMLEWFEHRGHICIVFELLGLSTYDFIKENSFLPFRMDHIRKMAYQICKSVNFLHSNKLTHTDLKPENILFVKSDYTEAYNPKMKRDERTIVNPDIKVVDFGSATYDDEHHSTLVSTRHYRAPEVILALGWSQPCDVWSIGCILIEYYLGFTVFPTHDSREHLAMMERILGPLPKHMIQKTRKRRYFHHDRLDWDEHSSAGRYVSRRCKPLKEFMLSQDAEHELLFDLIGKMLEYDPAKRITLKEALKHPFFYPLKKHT
T3 sequence (P11309 whole entry, looked up): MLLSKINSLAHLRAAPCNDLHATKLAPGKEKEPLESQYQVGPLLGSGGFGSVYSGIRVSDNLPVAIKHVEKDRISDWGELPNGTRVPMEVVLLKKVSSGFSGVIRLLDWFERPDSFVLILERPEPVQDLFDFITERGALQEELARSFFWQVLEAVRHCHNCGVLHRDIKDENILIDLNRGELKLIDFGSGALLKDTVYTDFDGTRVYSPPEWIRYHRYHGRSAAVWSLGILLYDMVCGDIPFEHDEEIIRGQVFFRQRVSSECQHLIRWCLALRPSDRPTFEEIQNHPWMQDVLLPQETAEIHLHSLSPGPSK
Chain of Glycogen synthase kinase-3 beta (Homo sapiens) (P49841 whole entry, looked up): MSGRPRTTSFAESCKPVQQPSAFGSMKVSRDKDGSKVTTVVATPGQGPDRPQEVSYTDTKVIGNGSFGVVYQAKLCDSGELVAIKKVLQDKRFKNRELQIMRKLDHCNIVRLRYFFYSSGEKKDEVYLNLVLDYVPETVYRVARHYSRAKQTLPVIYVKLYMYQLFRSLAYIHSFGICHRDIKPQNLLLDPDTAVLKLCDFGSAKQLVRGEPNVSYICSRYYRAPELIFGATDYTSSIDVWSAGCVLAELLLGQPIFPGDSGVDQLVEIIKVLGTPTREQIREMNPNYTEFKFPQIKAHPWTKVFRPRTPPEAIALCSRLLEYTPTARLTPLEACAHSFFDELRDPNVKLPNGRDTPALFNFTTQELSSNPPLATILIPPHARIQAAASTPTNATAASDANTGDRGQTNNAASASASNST

Turning to `O=C1CCC(N2C(=O)c3cccc(NCCOCCOCCOCCn4ccc5cc6ccncc6cc54)c3C2=O)C(=O)N1` (stereo not given), the Activity in test [1] was found to be 100%; in test [2] it was 100%; in test [3], 81%; in test [4], 88%; in test [5], 91%; in [6] it was 100%. Besides, the Activity was 93% in test [7]; 100% in test [8]; 94% in test [9]; 100% in test [10]; 95% in test [11]; 83% in test [12]. In addition, the Activity turned out to be 97% in test [13], 86% in test [14], 95% in [15] and 87% in test [16].
`c1cc2c(ccc3cc[nH]c32)cn1`: the Activity in test [1] was found to be 63%; in test [2] it was 95%; in [3] it was 76%; in [4] it was 45%; in [5], 59%; in test [6], 80%. For the same compound, the Activity in test [7] is 82%; in test [8], 77%; in test [9], 43%; in test [10], 50%; in test [11], 39%; in [12], 9%. For the same compound, the Activity amounted to 94% in test [13], 38% in test [14], 64% in test [15] and 31% in [16]. Also, in [17], the IC50 is 0.258 µM.
For the compound `O=C1CCC(N2C(=O)c3cccc(NCCOCCOCCOCCn4cc(I)c5cc6ccncc6cc54)c3C2=O)C(=O)N1` (stereo not given), the Activity turned out to be 80% in test [11] and 100% in test [12].
On to `O=C1CCC(N2C(=O)c3cccc(NCCOCCOCCOCCNC(=O)c4c[nH]c5cc6cnccc6cc45)c3C2=O)C(=O)N1` (stereo not given), for which the Activity amounted to 100% in test [1]; 100% in [2]; 85% in [3]; 86% in [4]; 100% in [5]; 97% in test [6]. For the same compound, the Activity is 82% in test [7]; 100% in [8]; 97% in [9]; 90% in test [10]; 74% in test [11]; 60% in test [12]. Besides, the Activity in test [13] was 99%; in test [14] it was 75%; in test [15], 67%; in [16], 84%.
As for `Cn1cc(-c2ccccn2)c2cc3ccncc3cc21`, the Activity in test [1] worked out at 100%; in test [2], 100%; in test [3] it was 53%; in test [4], 49%; in test [5] it was 77%; in [6] it was 73%. The Activity in test [7] was 67%; in test [8], 100%; in [9] it was 36%; in [10], 63%; in [11], 25%; in [12], 7%. Also, the Activity in [13] came out at 89%; in test [14], 38%; in test [15] it was 74%; in [16], 23%. The IC50 in test [17] came to 0.173 µM.
Consider `c1cc2cc3c(cc2cn1)NCC3`, for which the Activity came out at 88% in test [1]; 92% in [2]; 80% in [3]; 62% in test [4]; 75% in test [5]; 98% in [6]. For the same compound, the Activity in [7] amounted to 78%; in [8], 89%; in test [9], 80%; in test [10] it was 68%; in test [11], 66%; in test [12], 28%. For the same compound, the Activity in test [13] was 96%; in test [14] it was 70%; in test [15] it was 65%; in test [16], 66%.
For `O=C1CCC(N2C(=O)c3cccc(NCCOCCOCCOCCn4cc(Br)c5cc6ccncc6cc54)c3C2=O)C(=O)N1` (stereo not given), the values for the Activity in test [11] and in [12] were 98% and 86%, respectively.
For the compound `O=C1CCC(N2C(=O)c3cccc(NCCOCCOCCOCCn4cc(-c5cccnc5)c5cc6ccncc6cc54)c3C2=O)C(=O)N1` (stereo not given), the Activity in test [1] stood at 100%; in test [2] it was 100%; in test [3] it was 74%; in [4], 81%; in test [5], 91%; in test [6], 90%. Moreover, the Activity in [7] came out at 86%; in test [8], 100%; in test [9], 79%; in [10], 65%; in test [11] it was 70%; in [12] it was 71%. For the same compound, the Activity in [13] came to 91%; in test [14], 66%; in test [15] it was 61%; in test [16], 74%.
For `O=C1CCC(N2C(=O)c3cccc(NCCOCCOCCOCCn4cc(Cl)c5cc6ccncc6cc54)c3C2=O)C(=O)N1` (stereo not given), the results for the Activity in test [11] and in [12] were 78% and 90%, respectively.
`O=C1CCC(N2C(=O)c3cccc(NCCOCCOCCOCCn4cc(-c5ccncc5)c5cc6ccncc6cc54)c3C2=O)C(=O)N1` (stereo not given): the Activity in [1] turned out to be 100%; in test [2], 99%; in test [3] it was 81%; in [4], 96%; in [5], 97%; in test [6], 100%. For the same compound, the Activity in test [7] turned out to be 84%; in test [8] it was 100%; in test [9], 89%; in [10] it was 90%; in test [11] it was 67%; in test [12], 71%. In addition, the Activity in test [13] worked out at 84%; in [14], 64%; in [15] it was 74%; in [16], 64%.
